Assay results: PMC9598367, “Discovery and Preliminary Structure-Activity Investigation of 3-Substituted-1H-imidazol-5-yl-1H-indoles with In Vitro Activity towards Methicillin-Resistant Staphylococcus aureus” (Antibiotics, 2022)
In brackets after ≈: the same amount, converted by molar mass. Entries after “also recorded” stand apart in the source; their conditions may differ.

Columns and labels:
[1] = tested on: Staphylococcus aureus ATCC43300 (MRSA); experiment: MIC, MRSA ATCC43300 (CO-ADD protocol); assay type: cell-based; conditions: for MIC: Staphylococcus aureus, Staphylococcus aureus ATCC43300 (MRSA), mean (n = 2), read-out: MIC (µg/mL) MRSA; for anti-MRSA activity (in words): result in words
From the text: Additional antimicrobial evaluation against Staphylococcus aureus MRSA (ATCC43300), Pseudomonas aeruginosa (ATCC27853), Escherichia coli (ATCC25922), Klebsiella pneumoniae (ATCC700603), Acinetobacter baumannii (ATCC19606), Candida albicans (ATCC90028), and Cryptococcus neoformans (ATCC208821) was undertaken at the Community for Open Antimicrobial Drug Discovery at The University of Queensland (Australia) according to their standard protocols. For antimicrobial assays, the tested strains were cultured in either Luria broth (LB) (In Vitro Technologies, USB75852, Noble Park North, Australia), nutrient broth (NB) (Becton Dickson, 234000, Macquarie Park, Australia), or cation-adjusted MHB at 37 °C overnight. A sample of culture was then diluted 40-fold in fresh MHB and incubated at 37 °C for 1.5−2 h. The compounds were serially diluted 2-fold across the wells of 96-well plates (Corning 3641, Tewksbury, MA, USA, nonbinding surface), with compound concentrations ranging from 0.015 to 64 μg/mL, plated in duplicate. The resultant mid log phase cultures were diluted to the final concentration of 1 × 10^6 CFU/mL; then, 50 μL was added to each well of the compound containing plates giving a final compound concentration range of 0.008 to 32 μg/mL and a cell density of 5 × 10^5 CFU/mL. All plates were then covered and incubated at 37 °C for 18 h. Resazurin was added at 0.001% final concentration to each well and incubated for 2 h before MICs were read by eye.
(§1) Colistin and vancomycin were used as positive bacterial inhibitor standards for Gram-negative and Gram-positive bacteria, respectively. Fluconazole was used as a positive fungal inhibitor standard for C. albicans and C. neoformans. The antibiotics were provided in 4 concentrations, with 2 above and 2 below its MIC value, and plated into the first 8 wells of column 23 of the 384-well NBS plates. The quality control (QC) of the assays was determined by the antimicrobial controls and the Z′-factor (using positive and negative controls).

[2] = HEK293 cytotoxicity assay (resazurin); assay type: cell-based, human; conditions: human; concentration at 50% cytotoxicity on HEK293 cells; mean (n = 2)
Description: (§2) For the HEK293 cytotoxicity assay, cells were counted manually in a Neubauer hemocytometer and plated at a density of 5000 cells/well into each well of the 384-well plates containing the 25× (2 μL) concentrated compounds. The medium used was Dulbecco’s modified eagle medium (DMEM) supplemented with 10% fetal bovine serum (FBS). Cells were incubated together with the compounds for 20 h at 37 °C, 5% CO2. To measure cytotoxicity, 5 μL (equals 100 μM final) of resazurin was added to each well after incubation, and incubated for further 3 h at 37 °C with 5% CO2. After final incubation fluorescence intensity was measured as Fex 560/10 nm, em 590/10 nm (F560/590) using a Tecan M1000 Pro monochromator plate reader. CC50 values (concentration at 50% cytotoxicity) were calculated by normalizing the fluorescence readout, with 74 μg/mL tamoxifen as negative control (0%) and normal cell growth as positive control (100%). The concentration-dependent percentage cytotoxicity was fitted to a dose response function (using Pipeline Pilot) and CC50 values determined.

[3] = tested on: HEK293 human embryonic kidney cells; experiment: HEK293 cytotoxicity assay (resazurin); assay type: cell-based; conditions: HEK293; result in words
Description: as §2

human red blood cells = experiment: Hemolytic assay; assay type: cell-based; conditions: for HC10: concentration at 10% hemolytic activity on human red blood cells, mean (n = 2); for hemolytic activity (in words): human red blood cells, result in words
Description: Human whole blood was washed three times with 3 volumes of 0.9% NaCl and then resuspended in same to a concentration of 0.5 × 10^8 cells/mL, as determined by manual cell count in a Neubauer hemocytometer. The washed cells were then added to the 384-well compound-containing plates for a final volume of 50 μL. After a 10 min shake on a plate shaker the plates were then incubated for 1 h at 37 °C. After incubation, the plates were centrifuged at 1000 g for 10 min to pellet cells and debris, 25 μL of the supernatant was then transferred to a polystyrene 384-well assay plate. Hemolysis was determined by measuring the supernatant absorbance at […] (OD405). The absorbance was measured using a Tecan M1000 Pro monochromator plate reader. HC10 and HC50 (concentration at 10% and 50% hemolysis, respectively) were calculated by curve fitting the inhibition values vs. log(concentration) using a sigmoidal dose–response function with variable fitting values for top, bottom and slope.

[4] = tested on: Cryptococcus neoformans ATCC208821; experiment: Antifungal MIC, C. neoformans; assay type: cell-based; conditions: for MIC: Cryptococcus neoformans ATCC208821, mean (n = 2); for antifungal activity towards C. neoformans (in words): result in words
Description: For the antifungal assay, fungi strains were cultured for 3 days on yeast extract-peptone dextrose (YPD) agar at 30 °C. A yeast suspension of 1 × 10^6 to 5 × 10^6 CFU/mL was prepared from five colonies. These stock suspensions were diluted with yeast nitrogen base (YNB) (Becton Dickinson, 233520) broth to a final concentration of 2.5 × 10^3 CFU/mL. The compounds were serially diluted 2-fold across the wells of 96-well plates (Corning 3641, nonbinding surface), with compound concentrations ranging from 0.015 to 64 μg/mL and final volumes of 50 μL, plated in duplicate. Then, 50 μL of the fungi suspension that was previously prepared in YNB broth to the final concentration of 2.5 × 10^3 CFU/mL was added to each well of the compound-containing plates, giving a final compound concentration range of 0.008 to 32 μg/mL. Plates were covered and incubated at 35 °C for 36 h without shaking. C. albicans MICs were determined by measuring the absorbance at OD530. For C. neoformans, resazurin was added at 0.006% final concentration to each well and incubated for a further 3 h before MICs were determined by measuring the absorbance at OD570–600.
as §1

[5] = tested on: Staphylococcus aureus ATCC25923; experiment: MIC by broth dilution, S. aureus ATCC25923; assay type: cell-based; conditions: for MIC: Staphylococcus aureus ATCC25923, mean (n = 3)
Description: The susceptibility of S. aureus (ATCC25923) to antibiotics and compounds was determined in microplates using the standard broth dilution method in accordance with the recommendations of the Comité de l’AntibioGramme de la Société Française de Microbiologie (CA-SFM) as previously described. Briefly, the minimal inhibitory concentrations (MICs) were determined with an inoculum of 10^5 CFU in 200 µL of Mueller-Hinton broth (MHB) containing two-fold serial dilutions of each drug. […] To determine all MICs, the measurements were independently repeated in triplicate.

S. aureus (ATCC25923) = experiment: Membrane depolarization assay, DiSC3(5); assay type: cell-based, Staphylococcus aureus; conditions: preliminary investigation; result in words
Description: S. aureus (ATCC25923) was grown in MH II broth for 24 h at 37 °C. After reaching an OD600 nm of 0.5, cells were centrifuged (3600× g for 20 min at 20 °C) and washed twice with buffered sucrose solution (250 mM), magnesium sulfate solution (25 mM) and Hepes (5 mM) (pH = 7.2). The fluorescent dye […] DiSC3(5) was added to a final concentration of 5 µM and was incubated with the suspensions for 5 min at 37 °C to allow the dye incorporation into the polarized membranes. 10 µL of compound was then added to 90 µL of the fluorescent suspensions at different concentrations ranging from 200 µM to 25 µM. Fluorescence measurements were recorded for 20 minutes (excitation wavelength 622 nm, emission wavelength 690 nm).
The difference in the relative fluorescence values (RFU) from the control containing only buffer and the control containing bacteria treated only with cetyltrimethylammonium bromide ([…]) is taken as the maximum level of depolarization. Assays were performed in three independent experiments. Blank determined by using no compound. Maximum RFU determined by using CTAB 0.1%
Equation used: (RFU of the compound−RFU of the blank)×100/RFU of the maximum

SMILES | MIC [1] | MIC [4] | melting point | MIC [5] | CC50 at 20 h [2] | cytotoxicity (in words) [3] | HC10 (human red blood cells) | hemolytic activity (in words) (human red blood cells) | antifungal activity towards C. neoformans (in words) [4] | anti-MRSA activity (in words) [1] | membrane depolarization of S. aureus (S. aureus (ATCC25923)) | activity against S. aureus (in words) ([5]; result in words)
c1ccc(-c2cncn2Cc2c[nH]c3ccccc23)cc1 [Compound 111, 3-((5-Phenyl-1H-imidazol-1-yl)methyl)-1H-indole] | 16 µg/mL (≈ 58.5 µM) | ≤ 0.25 µg/mL | 57 to 58 °C | 50 µg/mL (≈ 183 µM) | > 32 µg/mL | lack of cytotoxicity and hemolytic activity | >32 µg/mL | lack of cytotoxicity and hemolytic activity | non-toxic selective antifungals |  |  | 
COc1ccc(OC)c(CCn2cncc2-c2c[nH]c3ccc(Cl)cc23)c1 [Compound 32, 5-Chloro-3-(1-(2,5-dimethoxyphenethyl)-1H-imidazol-5-yl)-1H-indole] |  | > 32 µg/mL |  | 100 µg/mL (≈ 262 µM) | > 32 µg/mL | lack of cytotoxicity; also recorded: lacked cytotoxic or hemolytic properties | >32 µg/mL | lacked cytotoxic or hemolytic properties |  | promising non-toxic selective anti-MRSA compounds |  | 
Brc1ccc2c(-c3cncn3CCc3ccc4c(c3)OCO4)c[nH]c2c1 [Compound 42, 3-(1-(2-(Benzo[d][1,3]dioxol-5-yl)ethyl)-1H-imidazol-5-yl)-6-bromo-1H-indole] | 16 µg/mL (≈ 39 µM) | 32 µg/mL (≈ 78 µM) | 194 to 195 °C | 12.5 µg/mL (≈ 30.5 µM) | 16.1 µg/mL (≈ 39.2 µM) |  | >32 µg/mL |  |  |  |  | 

More lines, main results first:

MIC [1] | MIC [4] | melting point | MIC [5] | SMILES | CC50 at 20 h [2] | cytotoxicity (in words) [3] | HC10 (human red blood cells) | hemolytic activity (in words) (human red blood cells) | antifungal activity towards C. neoformans (in words) [4] | anti-MRSA activity (in words) [1] | membrane depolarization of S. aureus (S. aureus (ATCC25923)) | activity against S. aureus (in words) ([5]; result in words)
> 32 µg/mL | ≤ 0.25 µg/mL | 48 to 49 °C | > 200 µg/mL | COc1ccc2c(-c3cncn3CCc3ccccc3)c[nH]c2c1 [Compound 57, 6-Methoxy-3-(1-phenethyl-1H-imidazol-5-yl)-1H-indole] | > 32 µg/mL | lack of cytotoxicity and hemolytic activity | >32 µg/mL | lack of cytotoxicity and hemolytic activity | non-toxic selective antifungals |  |  | 
> 32 µg/mL | 32 µg/mL (≈ 76.7 µM) | 191 to 192 °C | 6.25 µg/mL (≈ 15 µM) | Fc1ccc2c(-c3cncn3Cc3ccc(I)cc3)c[nH]c2c1 [Compound 6, 6-Fluoro-3-(1-(4-iodobenzyl)-1H-imidazol-5-yl)-1H-indole] | 15.6 µg/mL (≈ 37.4 µM) |  | >32 µg/mL |  |  |  | only very weak membrane depolarization | strong activity
≤ 0.25 µg/mL | > 32 µg/mL |  | > 200 µg/mL | COc1ccc(CCn2cncc2-c2c[nH]c3ccc(Cl)cc23)cc1 [Compound 26, 5-Chloro-3-(1-(4-methoxyphenethyl)-1H-imidazol-5-yl)-1H-indole] | > 32 µg/mL | lack of cytotoxicity; also recorded: lacked cytotoxic or hemolytic properties | >32 µg/mL | lacked cytotoxic or hemolytic properties |  | promising non-toxic selective anti-MRSA compounds |  | 
32 µg/mL (≈ 80.7 µM) | 32 µg/mL (≈ 80.7 µM) | 184 to 185 °C | 12.5 µg/mL (≈ 31.5 µM) | COc1ccc(CCn2cncc2-c2c[nH]c3cc(Br)ccc23)cc1 [Compound 28, 6-Bromo-3-(1-(4-methoxyphenethyl)-1H-imidazol-5-yl)-1H-indole] | 15.6 µg/mL (≈ 39.4 µM) |  | >32 µg/mL |  |  |  |  | 
16 µg/mL (≈ 33.5 µM) | 16 µg/mL (≈ 33.5 µM) | > 200 °C | > 200 µg/mL | Brc1ccc2[nH]cc(-c3cncn3Cc3ccc(I)cc3)c2c1 [Compound 9, 5-Bromo-3-(1-(4-iodobenzyl)-1H-imidazol-5-yl)-1H-indole] | 5.1 µg/mL (≈ 10.7 µM) |  | >32 µg/mL |  |  |  |  | 
